According to paper PMC7765298, “EGFR-Binding Peptides: From Computational Design towards Tumor-Targeting of Adeno-Associated Virus Capsids” (International Journal of Molecular Sciences, 2020):
pKd: −log10 of the molar value.

How the values were obtained:
[1] = biological target: EGFR; conditions: dissociation constant described for EGFR-binding peptide GE11; cited from earlier work
[2] = tested on: A431 cells; assay: Wound healing assay; type: cell-based; conditions: 1 nM recombinant human EGF in RPMI medium, positive control
Protocol: Since biophysical measurements are confounded by the intrinsic diversity of receptor conformations and imaging of moderate binding is difficult, we assessed peptide activity using a cell-based functional assay. Epidermoid tumor cell line A431 depends on EGF signaling for proliferation and migration, which can be assessed by wound healing assays monitoring the closure of a scratch in a cell lawn. A431 cells were grown to a confluent cell monolayer, serum-starved, and scratched. The resulting gap was monitored by microscopy and measured over a 6-h period (Figure 3A). As a positive, control cells were treated with 1 nM recombinant human EGF (hEGF) in RPMI medium. Cell migration in µm/h was calculated from a linear regression of the gap area over time plotted against time (Figure S6). […]
Figure 3 Effect of EGFR-directed peptides in the presence of the natural EGFR-ligand EGF in a wound healing assay with A431 cells. […] The yellow cell borders were detected by image recognition using ImageJ. […] (B) Bar chart presenting the cell migration velocity as determined from microscopy images. […]
Figure S6. […] The gap area over time is analyzed for each sample.
Areas were calculated using ImageJ. Linear regressions were calculated to determine to growth rate. […]

YHWYGYTPQNVI [GE11]
pKd [1]: 3.34

hEGF: recombinant human epidermal growth factor, positive control
increase in cell migration compared to negative control (buffer) [2]: three-fold increase
